From US20240158418A1 (C4 Therapeutics, Inc., priority 2021, published 2024)
Read-outs that look alike come from different tables or passages of the source.

Molecular target: T1, EGFR L858R-T790M (Homo sapiens, UniProt P00533, L858R/T790M)
T1 construct: NCI-H1975 (harboring EGFR heterozygous L858R-T790M mutations); host or cells: NCI-H1975
Assay: EGFR degradation, Total EGFR (L858R-specific) HTRF, NCI-H1975
Format: cell-based
Details: NCI-H1975 cells, 6 hours, Total EGFR HTRF, read-out: H1975 EGFR DC50
Description: NCI-H1975 (harboring EGFR heterozygous L858R-T790M mutations) and NCI-H3255 (harboring EGFR heterozygous L858R mutation) were purchased from ATCC and NCI, respectively. NCI-H1975+CS (harboring EGFR heterozygous L858R-T790M-C797S mutations) was generated using CRISPR technology to introduce the additional C797S mutation by Horizon Discovery. A431 (harboring EGFR wildtype) was purchased from ATCC. RPMI 1640 no-phenol red medium and fetal bovine serum (FBS) were purchased from Gibco (Grand Island, NY, USA). Cell culture flasks and 384-well microplates were acquired from VWR (Radnor, PA, USA). Phosphorylated (pY1068) EGFR and Total EGFR (using L858R-specific detection antibody and pan-EGFR antibody for EGFR mutant cell lines and EGFR wild-type cell lines, respectively) HTRF assay kits were purchased from Cisbio (Bedford, MA, USA).
Degradation of EGFR protein containing L858R mutation or wild-type was determined based on quantification of FRET signal using a Total EGFR (L858R-specific or pan-EGFR detecting) HTRF assay kit. Phospho-EGFR (pEGFR) inhibition was determined based on quantification of FRET signal using a pY1068 EGFR HTRF assay kit. In separate assay plates, test compounds were added to the 384-well plate from a top concentration of 10 μM with 11 points, half log titration in duplicates. For each assay, 12.5 uL of cells suspended in assay media (RPMI 1640 no-phenol red medium+10% FBS) at cell densities indicated for each cell line in Table 8 below were dispensed using a multi-channel pipette to 384-well low volume white HTRF microplates containing a duplicate concentration range of test compounds and DMSO controls. The plates were kept at 37° C. with 5% CO2 for 6 hours and then incubated with either phospho EGFR or Total EGFR HTRF detection antibodies according to the cell line and EGFR mutant being assayed. Cells treated in the absence of the test compound were the negative control. Positive control was set by wells containing all reagents but no cells. FRET signal was acquired on EnVision™ Multilabel Reader (PerkinElmer, Santa Clara, CA, USA). Compound concentration that achieves 50% degradation and inhibition was reported as DC50 and IC50, respectively.

T1 sequence (P00533 25-1210 T790M/L858R): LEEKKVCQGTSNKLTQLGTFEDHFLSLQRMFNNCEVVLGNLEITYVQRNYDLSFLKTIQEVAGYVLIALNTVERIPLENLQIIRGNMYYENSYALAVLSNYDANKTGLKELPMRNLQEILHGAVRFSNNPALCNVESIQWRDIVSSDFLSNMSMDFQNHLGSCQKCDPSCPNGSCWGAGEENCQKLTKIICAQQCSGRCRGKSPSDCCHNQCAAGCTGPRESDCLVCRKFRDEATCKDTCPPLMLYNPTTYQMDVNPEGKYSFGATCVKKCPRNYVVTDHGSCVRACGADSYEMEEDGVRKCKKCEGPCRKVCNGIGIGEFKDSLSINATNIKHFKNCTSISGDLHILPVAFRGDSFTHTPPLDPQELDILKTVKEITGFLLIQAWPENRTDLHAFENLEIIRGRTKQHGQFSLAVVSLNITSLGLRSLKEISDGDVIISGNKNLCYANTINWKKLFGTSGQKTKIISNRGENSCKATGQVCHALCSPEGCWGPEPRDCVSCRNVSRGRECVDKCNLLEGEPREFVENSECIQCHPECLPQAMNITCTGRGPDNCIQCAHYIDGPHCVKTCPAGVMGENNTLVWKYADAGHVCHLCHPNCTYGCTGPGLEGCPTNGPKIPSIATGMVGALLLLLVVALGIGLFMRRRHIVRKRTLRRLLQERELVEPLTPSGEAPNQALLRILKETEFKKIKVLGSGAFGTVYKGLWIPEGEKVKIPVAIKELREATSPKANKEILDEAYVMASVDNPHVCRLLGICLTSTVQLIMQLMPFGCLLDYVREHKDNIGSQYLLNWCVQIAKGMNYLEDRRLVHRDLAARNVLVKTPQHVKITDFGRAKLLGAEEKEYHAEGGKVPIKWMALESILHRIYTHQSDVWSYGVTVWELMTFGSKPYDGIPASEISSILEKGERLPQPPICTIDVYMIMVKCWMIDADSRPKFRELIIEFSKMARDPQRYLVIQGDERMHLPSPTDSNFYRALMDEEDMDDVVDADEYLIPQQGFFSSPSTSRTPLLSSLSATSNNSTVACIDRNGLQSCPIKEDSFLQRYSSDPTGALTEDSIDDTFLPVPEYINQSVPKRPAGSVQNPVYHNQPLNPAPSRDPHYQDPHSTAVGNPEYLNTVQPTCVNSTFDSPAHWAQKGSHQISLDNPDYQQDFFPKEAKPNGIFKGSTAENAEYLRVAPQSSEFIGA

Compound | DC50 (Table 9B) [nM] | DC50 (Table 9A) [nM]
Cn1nc(N2CCC(=O)NC2=O)c2ccc(C3CCN(CC(=O)N4C[C@H]5C[C@@H]4CN5c4ccc(-c5cc(F)c6c(c5)C(=O)N(C(C(=O)Nc5nccs5)c5ncn7c5CCC7)C6)cc4)CC3)cc21 (stereo partly drawn) [Compound 82, 2-(6,7-dihydro-5H-pyrrolo[1,2-c]imidazol-1-yl)-2-(6-(4-((1R,4R)-5-(2-(4-(3-(2,4-dioxotetrahydropyrimidin-1(2H)-yl)-1-methyl-1H-indazol-6-yl)piperidin-1-yl)acetyl)-2,5-diazabicyclo[2.2.1]heptan-2-yl)phenyl)-4-fluoro-1-oxoisoindolin-2-yl)-N-(thiazol-2-yl)acetamide] | > 150 | –
Cn1nc(N2CCC(=O)NC2=O)c2cc(F)c(N3CCC(O)(CC(=O)N4CC5(C4)CN(c4ccc(-c6cc(F)c7c(c6)C(=O)N(C(C(=O)Nc6nccs6)c6ncn8c6CCC8)C7)cc4)C5)CC3)cc21 (stereo not shown) [Compound 127, 2-(6,7-dihydro-5H-pyrrolo[1,2-c]imidazol-1-yl)-2-[6-[4-[2-[2-[1-[3-(2,4-dioxohexahydropyrimidin-1-yl)-5-fluoro-1-methyl-indazol-6-yl]-4-hydroxy-4-piperidyl]acetyl]-2,6-diazaspiro[3.3]heptan-6-yl]phenyl]-4-fluoro-1-oxo-isoindolin-2-yl]-N-thiazol-2-yl-acetamide] | < 50 | –
O=C1CCC(Nc2ccc(N3CCCC(O)(CC(=O)N4CC5(C4)CN(c4ccc(-c6cc(F)c7c(c6)C(=O)N(C(C(=O)Nc6nccs6)c6ncn8c6CCC8)C7)cc4)C5)CC3)c(F)c2)C(=O)N1 (single isomer, unassigned; isomer a2) [Compound 165, 2-(6,7-dihydro-5H-pyrrolo[1,2-c]imidazol-1-yl)-2-[6-[4-[2-[2-[1-[4-[[2,6-dioxo-3-piperidyl]amino]-2-fluoro-phenyl]-4-hydroxy-azepan-4-yl]acetyl]-2,6-diazaspiro[3.3]heptan-6-yl]phenyl]-4-fluoro-1-oxo-isoindolin-2-yl]-N-thiazol-2-yl-acetamide, isomer A2] | < 50 | –
O=C1CCC(Nc2ccc(C3CCN(CC(=O)N4CCC(Oc5ccc(-c6cc(F)c7c(c6)C(=O)N(C(C(=O)Nc6nccs6)c6ncn8c6CCC8)C7)cc5)CC4)CC3)nc2)C(=O)N1 (stereo not shown) [Compound 36, 2-(6,7-dihydro-5H-pyrrolo[1,2-c]imidazol-1-yl)-2-(6-(4-((1-(2-(4-(5-((2,6-dioxopiperidin-3-yl)amino)pyridin-2-yl)piperidin-1-yl)acetyl)piperidin-4-yl)oxy)phenyl)-4-fluoro-1-oxoisoindolin-2-yl)-N-(thiazol-2-yl)acetamide] | – | < 50
O=C1CC[C@H](Nc2ccc(N3CCC(O)(CC(=O)N4CC5(C4)CN(c4ccc(-c6cc(Cl)c7c(c6)C(=O)N(C(C(=O)Nc6nccs6)c6ncn8c6CCC8)C7)cc4)C5)CC3)c(F)c2)C(=O)N1 (stereo partly drawn) [Compound 136, 2-[4-chloro-6-[4-[2-[2-[1-[4-[[(3S)-2,6-dioxo-3-piperidyl]amino]-2-fluoro-phenyl]-4-hydroxy-4-piperidyl]acetyl]-2,6-diazaspiro[3.3]heptan-6-yl]phenyl]-1-oxo-isoindolin-2-yl]-2-(6,7-dihydro-5H-pyrrolo[1,2-c]imidazol-1-yl)-N-thiazol-2-yl-acetamide] | < 50 | –
Cn1nc(N2CCC(=O)NC2=O)c2ccc(C3CCN(CC(=O)N4CC5(C4)CN(c4ccc(-c6cc(F)c7c(c6)C(=O)N(C(C(=O)Nc6ccccn6)c6ncn8c6CCC8)C7)cc4)C5)C4(CC4)C3)cc21 (stereo not shown) [Compound 153, 2-(6,7-dihydro-5H-pyrrolo[1,2-c]imidazol-1-yl)-2-[6-[4-[2-[2-[7-[3-(2,4-dioxohexahydropyrimidin-1-yl)-1-methyl-indazol-6-yl]-4-azaspiro[2.5]octan-4-yl]acetyl]-2,6-diazaspiro[3.3]heptan-6-yl]phenyl]-4-fluoro-1-oxo-isoindolin-2-yl]-N-(2-pyridyl)acetamide] | 50 to 150 | –
Cc1cc(C2CCN(C(=O)CN3CCC(c4ccc(NC5CCC(=O)NC5=O)cc4)CC3)CC2)ccc1-c1cc(F)c2c(c1)C(=O)N(C(C(=O)Nc1nccs1)c1ncn3c1CCC3)C2 (stereo not shown) [Compound 152, 2-(6,7-dihydro-5H-pyrrolo[1,2-c]imidazol-1-yl)-2-[6-[4-[1-[2-[4-[4-[(2,6-dioxo-3-piperidyl)amino]phenyl]-1-piperidyl]acetyl]-4-piperidyl]-2-methyl-phenyl]-4-fluoro-1-oxo-isoindolin-2-yl]-N-thiazol-2-yl-acetamide] | 50 to 150 | –
O=C1CCC(Nc2ccc(N3CCCC(O)(CC(=O)N4CC5(C4)CN(c4ccc(-c6cc(F)c7c(c6)C(=O)N(C(C(=O)Nc6nccs6)c6ncn8c6CCC8)C7)cc4)C5)CC3)c(F)c2)C(=O)N1 (single isomer, unassigned; isomer b1) [Compound 166, 2-(6,7-dihydro-5H-pyrrolo[1,2-c]imidazol-1-yl)-2-[6-[4-[2-[2-[1-[4-[[2,6-dioxo-3-piperidyl]amino]-2-fluoro-phenyl]-4-hydroxy-azepan-4-yl]acetyl]-2,6-diazaspiro[3.3]heptan-6-yl]phenyl]-4-fluoro-1-oxo-isoindolin-2-yl]-N-thiazol-2-yl-acetamide, isomer B1] | 50 to 150 | –
C[C@@H]1CC(O)(CC(=O)N2CC3(C2)CN(c2ccc(-c4cc(F)c5c(c4)C(=O)N(C(C(=O)Nc4nccs4)c4ncn6c4CCC6)C5)cc2)C3)C[C@H](C)N1c1ccc(NC2CCC(=O)NC2=O)cc1F (stereo partly shown) [Compound 161, 2-(6,7-dihydro-5H-pyrrolo[1,2-c]imidazol-1-yl)-2-[6-[4-[2-[2-[(2s,6r)-1-[4-[(2,6-dioxo-3-piperidyl)amino]-2-fluoro-phenyl]-4-hydroxy-2,6-dimethyl-4-piperidyl]acetyl]-2,6-diazaspiro[3.3]heptan-6-yl]phenyl]-4-fluoro-1-oxo-isoindolin-2-yl]-N-thiazol-2-yl-acetamide] | < 50 | –
O=C1CCC(c2ccc(N3CCC(O)(CC(=O)N4CC5(C4)CN(c4ccc(-c6cc(F)c7c(c6)C(=O)N(C(C(=O)Nc6nccs6)c6ncn8c6CCC8)C7)cc4)C5)CC3)c(F)c2)C(=O)N1 (stereo not shown) [Compound 157, 2-(6,7-dihydro-5H-pyrrolo[1,2-c]imidazol-1-yl)-2-(6-(4-(6-(2-(1-(4-(2,6-dioxopiperidin-3-yl)-2-fluorophenyl)-4-hydroxypiperidin-4-yl)acetyl)-2,6-diazaspiro[3.3]heptan-2-yl)phenyl)-4-fluoro-1-oxoisoindolin-2-yl)-N-(thiazol-2-yl)acetamide] | > 150 | –
Cn1nc(N2CCC(=O)NC2=O)c2ccc(C3CCN(CC(=O)N4CCC(n5cc(-c6cc(F)c7c(c6)C(=O)N(C(C(=O)Nc6nccs6)c6ncn8c6CCC8)C7)cn5)CC4)CC3(F)F)cc21 (stereo not shown) [Compound 105, 2-(6,7-dihydro-5H-pyrrolo[1,2-c]imidazol-1-yl)-2-(6-(1-(1-(2-(4-(3-(2,4-dioxotetrahydropyrimidin-1(2H)-yl)-1-methyl-1H-indazol-6-yl)-3,3-difluoropiperidin-1-yl)acetyl)piperidin-4-yl)-1H-pyrazol-4-yl)-4-fluoro-1-oxoisoindolin-2-yl)-N-(thiazol-2-yl)acetamide] | < 50 | –
O=C1CCC(Nc2ccc(C3CCN(C(=O)CC4CCN(c5ccc(-c6cc(F)c7c(c6)C(=O)N(C(C(=O)Nc6nccs6)c6ncn8c6CCC8)C7)cc5)CC4)CC3)c(F)c2)C(=O)N1 (stereo not shown) [Compound 86, 2-(6,7-dihydro-5H-pyrrolo[1,2-c]imidazol-1-yl)-2-[6-[4-[4-[2-[4-[4-[(2,6-dioxo-3-piperidyl)amino]-2-fluoro-phenyl]-1-piperidyl]-2-oxo-ethyl]-1-piperidyl]phenyl]-4-fluoro-1-oxo-isoindolin-2-yl]-N-thiazol-2-yl-acetamide] | 50 to 150 | –
O=C1CC[C@H](Nc2ccc(N3CCC(O)(CC(=O)N4CC5(C4)CN(c4ccc(-c6cc(F)c7c(c6)C(=O)N(C(C(=O)Nc6nccs6)c6ncn8c6C[C@@H](F)C8)C7)cc4)C5)CC3)c(F)c2)C(=O)N1 (stereo partly drawn) [Compound 131, 2-[6-[4-[2-[2-[1-[4-[[(3S)-2,6-dioxo-3-piperidyl]amino]-2-fluoro-phenyl]-4-hydroxy-4-piperidyl]acetyl]-2,6-diazaspiro[3.3]heptan-6-yl]phenyl]-4-fluoro-1-oxo-isoindolin-2-yl]-2-[(6R)-6-fluoro-6,7-dihydro-5H-pyrrolo[1,2-c]imidazol-1-yl]-N-thiazol-2-yl-acetamide] | < 50 | –
